{"source": "patent US10583112B2", "about": "“Benzo[b]furans as bromodomain inhibitors” (GlaxoSmithKline Intellectual Property (No. 2) Limited, priority 2016, dated 2020)", "key": {"BRD4 BD1": {"molecular_target": "T1, BRD4 BD1 (Homo sapiens, UniProt O60885, Y390A)", "T1 construct": "BRD4 (1-477) (Y97A) and (Y390A); made in house; host or cells: E. coli (pET15b vector)", "assay": "BRD4 BD1 TR-FRET competition assay", "assay_type": "binding", "conditions": "mean, n given; read-out: pIC50 in the BRD4 BD1 TR-FRET assay (converted)", "method": "Bromodomain binding was assessed utilising a time resolved fluorescent resonance energy transfer (TR-FRET) competition assay. To enable this approach a known, high affinity, pan-BET interacting small molecule was labelled with Alexa Fluor® 647, which is a far-red-fluorescent dye (Reference Compound X). Reference Compound X acts as a reporter of bromodomain binding and is the acceptor fluorophore component of the TR-FRET pair. Europium chelate, conjugated to an anti-6*His antibody, was utilised as the donor fluorophore in the TR-FRET pair. […]\nThe competition of the compounds of formula (I) with Reference Compound X for binding to the BET family (BRD2, BRD3, BRD4 and BRDT) was assessed using protein truncates spanning both bromodomain 1 (BD1) and bromodomain 2 (BD2). […] Utilising a Fluorescence Polarisation approach, binding affinities for each of the single and double mutants for Reference Compound X were determined. […]\nAll assay components were dissolved in an assay buffer composing of 50 mM HEPES pH7.4, 50 mM NaCl, 5% Glycerol, 1 mM DTT and 1 mM CHAPS. […] TR-FRET was detected using a Perkin Elmer Multimode plate reader, by exciting the donor fluorophore at λ337 nm and subsequently, after a delay of 50 μsecs, measuring emission of the donor and acceptor fluorophores at λ615 nm and λ665 nm, respectively. […]"}, "BRD4 BD2": {"molecular_target": "T2, BRD4 BD2 (Homo sapiens, UniProt O60885, Y97A)", "T2 construct": "BRD4 (1-477) (Y97A) and (Y390A); made in house; host or cells: E. coli (pET15b vector)", "assay": "BRD4 BD2 TR-FRET competition assay", "assay_type": "binding", "conditions": "for Selectivity for BRD4 BD2 over BRD4 BD1 (BRD4 BD2 pIC50 - BRD4 BD1 pIC50): in at least one of the TR-FRET assays; for fold selective for BRD4 BD2 over BRD4 BD1: inferred from the log unit selectivity; for IC50: mean where stated, n given, read-out: pIC50 in the BRD4 BD2 TR-FRET assay (converted)", "method": "Bromodomain binding was assessed utilising a time resolved fluorescent resonance energy transfer (TR-FRET) competition assay. […] Europium chelate, conjugated to an anti-6*His antibody, was utilised as the donor fluorophore in the TR-FRET pair.\nIn order to generate a TR-FRET signal, donor fluorophore is excited by a laser at λ337 nm, which subsequently leads to emission at λ618 nm.\nIn order to monitor differential binding to either BD1 or BD2, single residue mutations of key tyrosines to alanine were made in the acetyl lysine binding pockets. To validate this approach, a double residue mutant tandem domain protein was produced for each of the BET family members.\nFinal purification was completed by Superdex 200 prep grade size exclusion column. Purified protein was stored at −80° C. in 20 mM HEPES pH 7.5 and 100 mM NaCl.\nAll assay components were dissolved in an assay buffer composing of 50 mM HEPES pH7.4, 50 mM NaCl, 5% Glycerol, 1 mM DTT and 1 mM CHAPS. […] An equal volume of 3 nM of anti-6*His Europium chelate was added to all wells, followed by a further 30 minute incubation at room temperature. TR-FRET was detected using a Perkin Elmer Multimode plate reader, by exciting the donor fluorophore at λ337 nm and subsequently, after a delay of 50 μsecs, measuring emission of the donor and acceptor fluorophores at λ615 nm and λ665 nm, respectively.\ncA four parameter curve fit of the following form was then applied: y=a+((b−a)/(1+(10^x/10^c)^d) • Where ‘a’ is the minimum, ‘b’ is the Hill slope, ‘c’ is the pIC50 and ‘d’ is the maximum."}, "[1]": {"test_system": "single mutated bromodomain tandem proteins (BET family)", "assay": "Fluorescence Polarisation binding affinity, single mutants", "parameters": "species or system Human", "method": "(§1) The competition of the compounds of formula (I) with Reference Compound X for binding to the BET family (BRD2, BRD3, BRD4 and BRDT) was assessed using protein truncates spanning both bromodomain 1 (BD1) and bromodomain 2 (BD2). In order to monitor differential binding to either BD1 or BD2, single residue mutations of key tyrosines to alanine were made in the acetyl lysine binding pockets. To validate this approach, a double residue mutant tandem domain protein was produced for each of the BET family members. Utilising a Fluorescence Polarisation approach, binding affinities for each of the single and double mutants for Reference Compound X were determined. […] The affinities of the single mutated bromdomain tandem proteins for Reference Compound X were equi-potent with the corresponding non-mutated BET protein. […] In the TR-FRET competition assay, Reference Compound X is used at a concentration that is equivalent to the Kd for the non-mutated bromodomain, which ensures that no binding at the mutated bromodomain is detected. […]"}, "[2]": {"test_system": "double residue mutant tandem domain protein of each of the BET family members", "assay": "Fluorescence Polarisation binding affinity, double mutants", "parameters": "species or system Human", "method": "as §1"}}, "data": [{"smiles": "CNC(=O)c1cc(C(=O)N[C@H]2[C@@H]3CN(C(=O)OC(C)(C)C)C[C@@H]32)cc2c1O[C@H](C)[C@H]2c1ccccc1", "note": "[Example 38, (1R,5S,6S)-tert-Butyl 6-((2R,3S)-2-methyl-7-(methylcarbamoyl)-3-phenyl-2,3-dihydrobenzofuran-5-carboxamido)-3-azabicyclo[3.1.0]hexane-3-carboxylate]", "values": [{"measurement": "IC50", "setting": "BRD4 BD1", "result": 20, "unit": "µM"}, {"measurement": "Selectivity for BRD4 BD2 over BRD4 BD1 (BRD4 BD2 pIC50 - BRD4 BD1 pIC50)", "setting": "BRD4 BD2", "result": 3.3, "unit": "log unit"}, {"measurement": "fold selective for BRD4 BD2 over BRD4 BD1", "setting": "BRD4 BD2", "result": "at least 100 fold"}, {"measurement": "IC50", "setting": "BRD4 BD2", "result": 0.01, "unit": "µM"}]}, {"smiles": "CNC(=O)c1cc(C(=O)NCCCC2CNCCO2)cc2c1O[C@H](C)[C@H]2c1ccccc1", "note": "(stereo partly drawn) [Example 54, (2R,3S)—N^7,2-Dimethyl-N^5-(3-(morpholin-2-yl)propyl)-3-phenyl-2,3-dihydrobenzofuran-5,7-dicarboxamide]", "values": [{"measurement": "IC50", "setting": "BRD4 BD1", "result": 25.1, "unit": "µM"}, {"measurement": "Selectivity for BRD4 BD2 over BRD4 BD1 (BRD4 BD2 pIC50 - BRD4 BD1 pIC50)", "setting": "BRD4 BD2", "result": 3.2, "unit": "log unit"}, {"measurement": "fold selective for BRD4 BD2 over BRD4 BD1", "setting": "BRD4 BD2", "result": "at least 1000 fold"}, {"measurement": "IC50", "setting": "BRD4 BD2", "result": 0.0158, "unit": "µM"}]}, {"smiles": "CNC(=O)c1cc(C(=O)Nc2cn(C)nn2)cc2c1O[C@@H](CF)[C@@H]2c1ccccc1", "note": "[Example 194, (2R,3R)-2-(fluoromethyl)-N^7-methyl-N^5-(1-methyl-1H-1,2,3-triazol-4-yl)-3-phenyl-2,3-dihydrobenzofuran-5,7-dicarboxamide]", "values": [{"measurement": "IC50", "setting": "BRD4 BD2", "result": "1 to 100", "unit": "µM"}]}, {"smiles": "CNC(=O)c1cc(C(=O)Nc2nncn2C)cc2c1O[C@@H](CF)[C@@H]2c1ccccc1", "note": "[Example 195, (2R,3R)-2-(fluoromethyl)-N^7-methyl-N^5-(4-methyl-4H-1,2,4-triazol-3-yl)-3-phenyl-2,3-dihydrobenzofuran-5,7-dicarboxamide]", "values": [{"measurement": "IC50", "setting": "BRD4 BD2", "result": "1 to 100", "unit": "µM"}]}, {"smiles": "CNC(=O)c1cc(C(=O)Nc2cncnc2)cc2c1O[C@@H](CF)[C@@H]2c1ccccc1", "note": "[Example 200, (2R,3R)-2-(Fluoromethyl)-N^7-methyl-3-phenyl-N^5-(pyrimidin-5-yl)-2,3-dihydrobenzofuran-5,7-dicarboxamide]", "values": [{"measurement": "IC50", "setting": "BRD4 BD2", "result": "1 to 100", "unit": "µM"}]}, {"smiles": "CNC(=O)c1cc(C(=O)N[C@H]2[C@@H]3COC[C@@H]32)cc2c1O[C@@H](C)[C@@H]2c1cccc(OCCOC)c1", "note": "[Example 201, (2S,3R)-N^5-((1R,5S,6r)-3-oxabicyclo[3.1.0]hexan-6-yl)-3-(3-(2-methoxyethoxy)phenyl)-N^7,2-dimethyl-2,3-dihydrobenzofuran-5,7-dicarboxamide]", "values": [{"measurement": "IC50", "setting": "BRD4 BD2", "result": "1 to 100", "unit": "µM"}]}, {"smiles": "COc1ccc2c(c1)C(c1ccc(Cl)cc1)=N[C@@H](CC(=O)NCCCCCNC(=O)CCCCCC1(C)/C(=C/C=C/C=C/C3=[N+](CCCCS(=O)(=O)O)c4ccc(S(=O)(=O)O)cc4C3(C)C)N(CCCCS(=O)(=O)[O-])c3ccc(S(=O)(=O)O)cc31)c1nnc(C)n1-2", "note": "(some centres unmarked) [Reference Compound X]", "values": [{"measurement": "affinity versus corresponding non-mutated BET protein", "setting": "[1]", "result": "equi-potent"}, {"measurement": "reduction in Kd (affinity) versus non mutated, wild type tandem BET proteins", "setting": "[2]", "result": "> 1000", "unit": "fold"}]}]}
